In PubChem BioAssay (NCI):
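Cells were grown in 96-well plates and exposed to each compound for 48 hours at five concentrations; endpoints were interpolated linearly between bracketing concentrations, or set to the highest concentration if not reached. At the TGI there is no net growth.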

Assays:
Experiment in all cases: NCI anticancer screen, dose series, 48 h
SF-539 CNS = system: SF-539 CNS
UO-31 renal = system: UO-31 renal
OVCAR-5 ovarian = system: OVCAR-5 ovarian
IGROV1 ovarian = system: IGROV1 ovarian
MDA-MB-231 breast = system: MDA-MB-231 breast
MDA-MB-435 = system: MDA-MB-435
KM12 colon = system: KM12 colon
OVCAR-4 ovarian = system: OVCAR-4 ovarian
HS 578T breast = system: HS 578T breast
SF-295 CNS = system: SF-295 CNS
SK-MEL-28 melanoma = system: SK-MEL-28 melanoma
HCT-15 colon = system: HCT-15 colon
HCT-116 colon = system: HCT-116 colon
NCI/ADR-RES ovarian = system: NCI/ADR-RES ovarian
NCI-H522 lung = system: NCI-H522 lung
MCF7 breast = system: MCF7 breast
SW-620 colon = system: SW-620 colon
NCI-H23 lung = system: NCI-H23 lung
PC-3 prostate = system: PC-3 prostate
SK-OV-3 ovarian = system: SK-OV-3 ovarian
EKVX NSCLC = system: EKVX NSCLC
K-562 leukemia = system: K-562 leukemia
BT-549 breast = system: BT-549 breast
SR leukemia = system: SR leukemia
SNB-75 CNS = system: SNB-75 CNS
A549 NSCLC = system: A549 NSCLC
UACC-257 melanoma = system: UACC-257 melanoma
OVCAR-3 ovarian = system: OVCAR-3 ovarian
UACC-62 melanoma = system: UACC-62 melanoma
SK-MEL-2 melanoma = system: SK-MEL-2 melanoma
NCI-H226 lung = system: NCI-H226 lung
T-47D breast = system: T-47D breast
MDA-N = system: MDA-N
HOP-62 NSCLC = system: HOP-62 NSCLC
786-0 renal = system: 786-0 renal
HCC-2998 colon = system: HCC-2998 colon
A498 renal = system: A498 renal
RXF 393 renal = system: RXF 393 renal
MALME-3M melanoma = system: MALME-3M melanoma
HT29 colon = system: HT29 colon
TK-10 renal = system: TK-10 renal
SF-268 CNS = system: SF-268 CNS
ACHN renal = system: ACHN renal
U251 CNS = system: U251 CNS
CCRF-CEM leukemia = system: CCRF-CEM leukemia
CAKI-1 renal = system: CAKI-1 renal
HOP-92 NSCLC = system: HOP-92 NSCLC
RPMI-8226 leukemia = system: RPMI-8226 leukemia
MOLT-4 leukemia = system: MOLT-4 leukemia
M14 melanoma = system: M14 melanoma
LOX IMVI melanoma = system: LOX IMVI melanoma
NCI-H460 lung = system: NCI-H460 lung
OVCAR-8 ovarian = system: OVCAR-8 ovarian
SN12C renal = system: SN12C renal
SK-MEL-5 melanoma = system: SK-MEL-5 melanoma
HL-60(TB) leukemia = system: HL-60(TB) leukemia
DU-145 prostate = system: DU-145 prostate
SNB-19 CNS = system: SNB-19 CNS

Measured: TGI

CCc1cccc(C(C)C)c1NC(=O)C(=O)Nn1c(=S)[nH]c2ccccc2c1=O
not listed: HL-60(TB) leukemia | DU-145 prostate | SNB-19 CNS
> 100 µM: all other assays above

CCN1CCCCCCCCCC(=N/O)/C(=N\O)C1
not listed: OVCAR-4 ovarian | HS 578T breast | SK-OV-3 ovarian | UACC-62 melanoma | SK-MEL-2 melanoma | HCC-2998 colon | RPMI-8226 leukemia
> 100 µM: all other assays above
